Legend:
MDA-MB-468 = test: In vitro cytotoxicity assay (CCK-8) in MDA-MB-468; type: cell-based; conditions: Homo sapiens, toxins (expected metabolites of the ADCs), 120 hours
Method: (§1) Dispensed 175 μL cell suspension in 96-well plate at 1500 cells per well and incubate for 24 hours in a humidified incubator (37° C., 5% CO2). […] Added 25 μL various concentrations of compound as a […] solution into the cell culture medium (Fetal bovine serum, Invitrogen) in the plate and incubated for 120 hours in the incubator. Thawed CCK-8 on the bench top or in a 37° C. water bath, added 10 μL of CCK-8 to each well of the incubated plate (be careful not introducing air bubbles into the wells since they would interfere with the O. D. reading) and then further incubated for 1-4 hours in the incubator. Measured the absorbance at 450 nm using a SpectraMax i3× Microplate Reader and calculated the cell inhibition rate. The IC50 curves were generated along with the IC50 values by using GraphPad Prism software.

SK-BR-3 = test: In vitro cytotoxicity assay (CCK-8) in SK-BR-3; type: cell-based; conditions: Homo sapiens, toxins (expected metabolites of the ADCs), 120 hours
Method: as §1

NCI-N87 = test: In vitro cytotoxicity assay (CCK-8) in NCI-N87; type: cell-based; conditions: Homo sapiens, toxins (expected metabolites of the ADCs), 120 hours
Method: as §1

JIMT-1 = test: cells; type: cell-based, human; conditions: for IC50: Homo sapiens, JIMT-1, toxins (expected metabolites of the ADCs), 120 hours
Method: as §1

MCF-7 = test: In vitro cytotoxicity assay (CCK-8) in MCF-7; type: cell-based; conditions: Homo sapiens, MCF7; toxins (expected metabolites of the ADCs), 120 hours
Method: as §1

SK-OV-3 = test: In vitro cytotoxicity assay (CCK-8) in SK-OV-3; type: cell-based; conditions: Homo sapiens, toxins (expected metabolites of the ADCs), 120 hours
Method: as §1

OVCAR-3 = test: In vitro cytotoxicity assay (CCK-8) in OVCAR-3; type: cell-based; conditions: Homo sapiens, toxins (expected metabolites of the ADCs), 120 hours
Method: as §1

Structure (SMILES)	IC50 (MDA-MB-468)	IC50 (SK-BR-3)	IC50 (NCI-N87)	IC50 (JIMT-1)	IC50 (MCF-7)	IC50 (SK-OV-3)	IC50 (OVCAR-3)	cytotoxic potency relative to DXd (JIMT-1)
CCc1c2c(nc3cc(F)c(C)c(CCCCO)c13)-c1cc3c(c(=O)n1C2)COC(=O)[C@]3(O)CC	> 30 nM	> 30 nM	> 30 nM	> 30 nM				
CC[C@@]1(O)C(=O)OCc2c1cc1n(c2=O)Cc2c-1nc1cc(F)c(C)c3c1c2[C@@H](NC(=O)CO)CC3 [DXd, reference compound]		1.9 nM	3.6 nM					
CC[C@@]1(O)C(=O)OCc2c1cc1n(c2=O)Cc2cc3c(CCCCO)c(C)c(F)cc3nc2-1 [MB-1, (19S)-19-ethyl-6-fluoro-19-hydroxy-8-(4-hydroxybutyl)-7-methyl-17-oxa-3,13-diazapentacyclo[11.8.0.0^2,11.0^4,9.0^15,20]henicosa-1(21),2,4,6,8,10,15(20)-heptaene-14,18-dione]	0.42 nM	0.77 nM	1.3 nM	0.78 nM	0.37 nM	1 nM	0.1 nM	ten folds more potent than DXd
